Calls of active or inactive are those of the source. The calls are words filed in the database; no cut-off is given here.

The values that follow come from ChEMBL document CHEMBL4256946, “Thiourea compounds and their use as inhibitors of sirt2 or sirt5” (2016).

Assay [1] addresses T1, NAD-dependent protein deacetylase sirtuin-1 (Homo sapiens, UniProt Q96EB6).
T1 sequence (Q96EB6 whole entry): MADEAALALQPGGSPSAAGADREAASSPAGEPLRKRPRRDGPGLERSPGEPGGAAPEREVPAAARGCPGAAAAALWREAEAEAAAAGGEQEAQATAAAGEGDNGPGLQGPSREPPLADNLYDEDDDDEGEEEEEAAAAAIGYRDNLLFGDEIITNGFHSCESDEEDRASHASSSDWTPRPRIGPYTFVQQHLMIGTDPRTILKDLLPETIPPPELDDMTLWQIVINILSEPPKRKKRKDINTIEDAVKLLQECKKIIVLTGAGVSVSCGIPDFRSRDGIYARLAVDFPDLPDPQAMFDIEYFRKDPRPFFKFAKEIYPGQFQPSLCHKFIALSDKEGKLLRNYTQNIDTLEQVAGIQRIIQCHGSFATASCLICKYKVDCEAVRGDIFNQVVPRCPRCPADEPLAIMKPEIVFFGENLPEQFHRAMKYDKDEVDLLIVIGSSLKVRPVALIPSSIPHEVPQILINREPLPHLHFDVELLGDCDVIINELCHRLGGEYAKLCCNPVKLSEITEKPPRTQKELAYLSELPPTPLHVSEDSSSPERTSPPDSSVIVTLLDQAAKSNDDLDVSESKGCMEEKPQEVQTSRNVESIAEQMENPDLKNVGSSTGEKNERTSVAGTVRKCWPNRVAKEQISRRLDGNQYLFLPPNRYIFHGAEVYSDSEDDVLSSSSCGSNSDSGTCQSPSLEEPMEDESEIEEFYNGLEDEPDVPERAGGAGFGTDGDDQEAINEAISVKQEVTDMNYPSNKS
Kind of assay: Inhibition of SIRT1 (unknown origin) assessed as reduction in enzyme-catalyzed desuccinylation reaction.

For assay [2], the target named is T2, NAD-dependent protein deacetylase sirtuin-3, mitochondrial (Homo sapiens, UniProt Q9NTG7).
T2 sequence (Q9NTG7 whole entry): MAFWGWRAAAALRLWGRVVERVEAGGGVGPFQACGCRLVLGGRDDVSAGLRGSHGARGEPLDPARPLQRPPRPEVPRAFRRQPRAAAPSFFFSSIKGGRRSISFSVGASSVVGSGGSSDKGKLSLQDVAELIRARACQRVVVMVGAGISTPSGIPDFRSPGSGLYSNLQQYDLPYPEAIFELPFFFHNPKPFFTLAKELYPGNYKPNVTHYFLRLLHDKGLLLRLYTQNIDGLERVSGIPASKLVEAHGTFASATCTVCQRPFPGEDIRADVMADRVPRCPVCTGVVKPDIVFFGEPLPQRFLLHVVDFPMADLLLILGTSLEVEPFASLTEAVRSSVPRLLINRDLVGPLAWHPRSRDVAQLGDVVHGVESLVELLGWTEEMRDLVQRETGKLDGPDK
Kind of assay: Inhibition of SIRT3 (unknown origin) assessed as reduction in enzyme-catalyzed desuccinylation reaction.

In assay [3] the target is T3, NAD-dependent protein deacetylase sirtuin-2 (Homo sapiens, UniProt Q8IXJ6).
T3 sequence (Q8IXJ6 whole entry): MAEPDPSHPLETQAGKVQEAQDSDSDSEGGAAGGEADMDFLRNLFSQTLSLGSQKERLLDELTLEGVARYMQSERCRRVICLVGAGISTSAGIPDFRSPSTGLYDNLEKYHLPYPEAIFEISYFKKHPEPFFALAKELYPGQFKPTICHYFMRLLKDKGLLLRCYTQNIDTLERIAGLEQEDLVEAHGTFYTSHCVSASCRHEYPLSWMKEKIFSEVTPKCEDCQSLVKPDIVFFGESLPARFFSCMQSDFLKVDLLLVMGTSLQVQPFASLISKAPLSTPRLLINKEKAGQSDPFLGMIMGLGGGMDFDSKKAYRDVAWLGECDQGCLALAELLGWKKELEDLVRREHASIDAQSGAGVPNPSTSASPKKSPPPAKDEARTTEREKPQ
Kind of assay: Inhibition of SIRT2 (unknown origin) assessed as reduction in enzyme-catalyzed desuccinylation reaction.

In assay [4] the test system is MCF7. As to the kind of experiment: Growth inhibition of human MCF7 cells at 25 uM incubated for 10 days by crystal violet staining based assay. The class given is functional, cell-based.
Assay [5] concerns the target NAD-dependent protein deacylase sirtuin-5, mitochondrial (Homo sapiens) (UniProt Q9NXA8). Kind of assay: Inhibition of SIRT5 in human HeLa cells assessed as increase in protein succinylation level at 100 uM after 24 to 48 hrs by Western blot analysis. It is filed as cell-based.
Assay [6] has as its target T4, NAD-dependent protein deacetylase sirtuin-2 (Homo sapiens) (UniProt Q8IXJ6).
T4 sequence (whole entry): T3 sequence (Q8IXJ6 whole entry)
Kind of assay: Inhibition of SIRT2 (unknown origin) assessed as reduction in enzyme-catalyzed desuccinylation reaction at 256 uM.

In assay [7] the target is NAD-dependent protein deacylase sirtuin-5, mitochondrial (Homo sapiens) (UniProt Q9NXA8). Kind of assay: Substrate activity at SIRT5 (unknown origin) assessed as compound-NAD covalent intermediate formation by measuring parent compound consumption measured after 18 hrs by liquid chromatography-mass spectrometry method.
For assay [8], the target named is T5, NAD-dependent protein deacetylase sirtuin-1 (Homo sapiens) (UniProt Q96EB6).
T5 sequence (whole entry): T1 sequence (Q96EB6 whole entry)
As to the kind of experiment: Inhibition of SIRT1 (unknown origin) assessed as reduction in enzyme-catalyzed desuccinylation reaction at 256 uM.

Assay [9] addresses NAD-dependent protein deacylase sirtuin-5, mitochondrial (Homo sapiens) (UniProt Q9NXA8). Kind of assay: Inhibition of SIRT5 (unknown origin) assessed as reduction in enzyme-catalyzed desuccinylation reaction at 200 uM.
Assay [10] has the same target. As to the kind of experiment: Inhibition of SIRT5 in human MCF7 cells assessed as increase in protein succinylation level at 100 uM after 48 to 72 hrs by Western blot analysis. It is filed as cell-based. For orientation: A western blot detects proteins with antibodies after separation by electrophoresis.
The subject of a further assay is MDA-MB-231. As to the kind of experiment: Inhibition of foci formation in human MDA-MB-231 cells at 10 to 100 uM. It is filed as functional, cell-based.
The next assay concerns MDA-MB-468. Kind of assay: Inhibition of foci formation in human MDA-MB-468 cells at 10 to 100 uM. It is filed as functional, cell-based.
For assay [11], the system named is MCF7. As to the kind of experiment: Inhibition of foci formation in human MCF7 cells at 10 to 100 uM. It is filed as functional, cell-based.
Assay [12] addresses NAD-dependent protein deacylase sirtuin-6 (Homo sapiens, UniProt Q8N6T7). Kind of assay: Inhibition of SIRT6 (unknown origin) assessed as reduction in enzyme-catalyzed desuccinylation reaction.
Assay [13] addresses NAD-dependent protein deacylase sirtuin-5, mitochondrial (Homo sapiens) (UniProt Q9NXA8). As to the kind of experiment: Substrate activity at SIRT5 (unknown origin) assessed as compound-NAD covalent intermediate formation by measuring 2-((2R,3R,4R,5R)-5-((((((2R,3S,4R,5R)-5-(6-amino-9H-purin-9-yl)-3,4-dihydroxytetrahydrofuran-2-yl)methoxy)(hydroxy)phosphoryloxy)(hydroxy)phosphoryloxy)methyl)-4-hydroxy-2-mercaptotetrahydrofuran-3-yl)-1-((S)-5-(benzyloxycarbonylamino)-6-oxo-6-(phenylamino)hexyl)-3-(2-carboxyethyl)isouronium level measured after 15 mins by liquid chromatography-mass spectrometry method.

The target is the same in assay [14]. As to the kind of experiment: Substrate activity at SIRT5 (unknown origin) assessed as compound-NAD covalent intermediate formation by measuring 2-((2R,3R,4S,5R)-5-((((((2R,3S,4R,5R)-5-(6-amino-9H-purin-9-yl)-3,4-dihydroxytetrahydrofuran-2-yl)methoxy)(hydroxy)phosphoryloxy)(hydroxy)phosphoryloxy)methyl)-3,4-dihydroxytetrahydrofuran-2-yl)-1-((S)-5-(benzyloxycarbonylamino)-6-oxo-6-(phenylamino)hexyl)-3-(2-carboxyethyl)isothiouronium level measured after 5 hrs by liquid chromatography-mass spectrometry method.

Assay [15] shares this target. Kind of assay: Substrate activity at SIRT5 (unknown origin) assessed as compound-NAD covalent intermediate formation by measuring 2-((2R,3R,4S,5R)-5-((((((2R,3S,4R,5R)-5-(6-amino-9H-purin-9-yl)-3,4-dihydroxytetrahydrofuran-2-yl)methoxy)(hydroxy)phosphoryloxy)(hydroxy)phosphoryloxy)methyl)-3,4-dihydroxytetrahydrofuran-2-yl)-1-((S)-5-(benzyloxycarbonylamino)-6-oxo-6-(phenylamino)hexyl)-3-(2-carboxyethyl)isothiouronium level measured after 15 mins by liquid chromatography-mass spectrometry method.

Assay [16] has the same target. Kind of assay: Substrate activity at SIRT5 (unknown origin) assessed as compound-NAD covalent intermediate formation by measuring 3-((3aR,5R,6R,6aR)-5-((((((2R,3S,4R,5R)-5-(6-amino-9H-purin-9-yl)-3,4-dihydroxytetrahydrofuran-2-yl)methoxy)(hydroxy)phosphoryloxy)(hydroxy)phosphoryloxy)methyl)-2-((S)-5-(benzyloxycarbonylamino)-6-oxo-6-(phenylamino)hexylamino)-6-hydroxytetrahydrofuro[2,3-d][1,3]oxathiol-2-ylamino)propanoic acid level measured after 5 hrs by liquid chromatography-mass spectrometry method.

For assay [17] the target is unchanged. Kind of assay: Substrate activity at SIRT5 (unknown origin) assessed as compound-NAD covalent intermediate formation by measuring 3-((3aR,5R,6R,6aR)-5-((((((2R,3S,4R,5R)-5-(6-amino-9H-purin-9-yl)-3,4-dihydroxytetrahydrofuran-2-yl)methoxy)(hydroxy)phosphoryloxy)(hydroxy)phosphoryloxy)methyl)-2-((S)-5-(benzyloxycarbonylamino)-6-oxo-6-(phenylamino)hexylamino)-6-hydroxytetrahydrofuro[2,3-d][1,3]oxathiol-2-ylamino)propanoic acid level measured after 15 mins by liquid chromatography-mass spectrometry method.

The target is the same in assay [18]. Kind of assay: Substrate activity at SIRT5 (unknown origin) assessed as compound-NAD covalent intermediate formation by measuring (S)-3,11-dioxo-1-phenyl-5-(phenylcarbamoyl)-2-oxa-4,10,12-triazapentadecan-15-oic acid level measured after 18 hrs by liquid chromatography-mass spectrometry method.
For assay [19] the target is unchanged. As to the kind of experiment: Substrate activity at SIRT5 (unknown origin) assessed as compound-NAD covalent intermediate formation by measuring 2-((2R,3R,4R,5R)-5-((((((2R,3S,4R,5R)-5-(6-amino-9H-purin-9-yl)-3,4-dihydroxytetrahydrofuran-2-yl)methoxy)(hydroxy)phosphoryloxy)(hydroxy)phosphoryloxy)methyl)-4-hydroxy-2-mercaptotetrahydrofuran-3-yl)-1-((S)-5-(benzyloxycarbonylamino)-6-oxo-6-(phenylamino)hexyl)-3-(2-carboxyethyl)isouronium level measured after 7 hrs by liquid chromatography-mass spectrometry method.

The target is the same in assay [20]. As to the kind of experiment: Mechanism based inhibition of SIRT5 (unknown origin) incubated in presence of NAD for 15 mins by liquid chromatography-mass spectrometry method.

Sequence of NAD-dependent protein deacylase sirtuin-5, mitochondrial (Homo sapiens) (Q9NXA8 37-310 limits assumed): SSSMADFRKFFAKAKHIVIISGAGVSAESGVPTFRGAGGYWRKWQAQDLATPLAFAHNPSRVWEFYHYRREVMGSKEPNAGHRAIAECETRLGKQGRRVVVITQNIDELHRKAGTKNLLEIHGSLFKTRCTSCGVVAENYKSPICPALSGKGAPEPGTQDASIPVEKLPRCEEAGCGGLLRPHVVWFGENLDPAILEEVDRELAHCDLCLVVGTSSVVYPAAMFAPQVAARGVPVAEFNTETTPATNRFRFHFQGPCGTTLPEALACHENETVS
Sequence of NAD-dependent protein deacylase sirtuin-6 (Q8N6T7 whole entry): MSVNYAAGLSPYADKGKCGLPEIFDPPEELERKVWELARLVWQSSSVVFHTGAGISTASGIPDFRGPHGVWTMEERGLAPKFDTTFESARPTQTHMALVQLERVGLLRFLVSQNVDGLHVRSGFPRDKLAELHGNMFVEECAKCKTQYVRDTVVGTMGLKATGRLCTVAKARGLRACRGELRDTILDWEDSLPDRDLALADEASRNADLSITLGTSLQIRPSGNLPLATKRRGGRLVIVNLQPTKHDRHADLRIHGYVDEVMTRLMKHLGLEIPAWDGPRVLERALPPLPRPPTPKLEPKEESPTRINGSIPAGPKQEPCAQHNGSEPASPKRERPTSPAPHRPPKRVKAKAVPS

`O=C(O)CCNC(=S)NCCCC[C@H](NC(=O)OCc1ccccc1)C(=O)Nc1cccc(O)c1`: the IC50 result in assay [1], in [2] and in assay [3] was “Not Active” each time.

In general, inhibition refers to the share of the control response that was lost under treatment. As for `CCOC(=O)CCNC(=S)NCCCC[C@H](NC(=O)OCc1ccccc1)C(=O)NC1CCSc2ccccc21` (some centres not stated), the “growth inhibition (GI)” value in the assay with MCF7 [4] is “Active”. In addition, the inhibition result in assay [5] is “Active”.

With `O=C(O)CCCC(=S)NCCCC[C@H](NC(=O)OCc1ccccc1)C(=O)Nc1ccccc1`, the inhibition entry in assay [6] and in assay [8] was “inactive” in each case. The outcome in assay [7] was inactive.

As to `CCOC(=O)CCNC(=S)NCCCC[C@H](NC(=O)OCc1ccccc1)C(=O)Nc1cccc(O)c1`, the inhibition was 20% in [9], “Dose-dependent effect” in the assay on MDA-MB-231, “Dose-dependent effect” in the assay with MDA-MB-468 and “Dose-dependent effect” with MCF7 [11]. For the same compound, the inhibition entry in [10] was “Active”. Also, the IC50 result in [2] and in [12] was “Not Active” in each case.

For `O=C(O)CCC(=S)NCCCC[C@H](NC(=O)OCc1ccccc1)C(=O)Nc1ccccc1`, the inhibition result in assay [6] and in assay [8] was “inactive” each time.

On to `O=C(O)CCNC(=S)NCCCC[C@H](NC(=O)OCc1ccccc1)C(=O)NC1CCSc2ccccc21` (some centres not stated), for which the IC50 result in [1], in assay [2] and in [3] was “Not Active” in each case. Besides, the “growth inhibition (GI)” value in the assay with MCF7 [4] is “inactive”.

Turning to `O=C(O)CC(=S)NCCCC[C@H](NC(=O)OCc1ccccc1)C(=O)Nc1ccccc1`, the inhibition result in [6] and in [8] was “inactive” each time. The result in assay [7], in [13], in assay [14], in [15], in assay [16] and in assay [17] was Active. Moreover, the outcome in assay [18] and in assay [19] was Active. The inhibition result in assay [20] was “Active”.
